From the NIST ThermoML archive (doi:10.1016/j.fluid.2018.05.028)

Experiment: xn = mol fraction of the nth substance listed
Conditions: 101 kPa, Liquid; for viscosity: Concentric cylinders viscometry; for speed of sound: Single path-length method; for mass density: Vibrating tube method

CCCCCCCCCCCCCCCC [hexadecane] + CCCO
Conditions	mass density [kg/m3]	speed of sound [m/s]	viscosity [mPa·s]
293.15 K, x2 = 0	773.35	1357.4	3.408
293.15 K, x2 = 0.1	773.48	1349.3	3.214
293.15 K, x2 = 0.2	774.05	1342.3	3.093
293.15 K, x2 = 0.3	774.88	1334.9	2.99
293.15 K, x2 = 0.4	776.01	1326.8	2.916
293.15 K, x2 = 0.5	777.51	1317.5	2.845
293.15 K, x2 = 0.6	779.56	1306.4	2.776
293.15 K, x2 = 0.7	782.34	1293.2	2.671
293.15 K, x2 = 0.8	786.35	1275.7	2.541
293.15 K, x2 = 0.9	792.43	1252.8	2.388
298.15 K, x2 = 0	769.87	1338.5	3.035
298.15 K, x2 = 0.1	769.92	1330.3	2.858
298.15 K, x2 = 0.2	770.46	1323.2	2.754
298.15 K, x2 = 0.3	771.25	1315.8	2.665
298.15 K, x2 = 0.4	772.34	1307.7	2.596
298.15 K, x2 = 0.5	773.81	1298.5	2.526
298.15 K, x2 = 0.6	775.81	1287.5	2.463
298.15 K, x2 = 0.7	778.55	1274.5	2.374
298.15 K, x2 = 0.8	782.5	1257.4	2.264
298.15 K, x2 = 0.9	788.52	1234.9	2.131
303.15 K, x2 = 0	766.4	1319.8	2.708
303.15 K, x2 = 0.1	766.38	1311.4	2.55
303.15 K, x2 = 0.2	766.87	1304.3	2.45
303.15 K, x2 = 0.3	767.62	1296.9	2.376
303.15 K, x2 = 0.4	768.67	1288.8	2.314
303.15 K, x2 = 0.5	770.09	1279.7	2.244
303.15 K, x2 = 0.6	772.04	1268.8	2.187
303.15 K, x2 = 0.7	774.73	1256	2.108
303.15 K, x2 = 0.8	778.64	1239.2	2.012
303.15 K, x2 = 0.9	784.59	1217.2	1.89
308.15 K, x2 = 0	762.95	1301.3	2.432
308.15 K, x2 = 0.1	762.83	1292.8	2.288
308.15 K, x2 = 0.2	763.27	1285.6	2.201
308.15 K, x2 = 0.3	763.98	1278.2	2.13
308.15 K, x2 = 0.4	764.98	1270.1	2.073
308.15 K, x2 = 0.5	766.36	1261	2.01
308.15 K, x2 = 0.6	768.26	1250.2	1.952
308.15 K, x2 = 0.7	770.89	1237.6	1.88
308.15 K, x2 = 0.8	774.74	1221.1	1.795
308.15 K, x2 = 0.9	780.63	1199.5	1.687
313.15 K, x2 = 0	759.49	1283.1	2.199
313.15 K, x2 = 0.1	759.29	1274.3	2.067
313.15 K, x2 = 0.2	759.67	1267.1	1.989
313.15 K, x2 = 0.3	760.33	1259.6	1.925
313.15 K, x2 = 0.4	761.29	1251.5	1.871
313.15 K, x2 = 0.5	762.61	1242.4	1.812
313.15 K, x2 = 0.6	764.45	1231.7	1.756
313.15 K, x2 = 0.7	767.03	1219.3	1.691
313.15 K, x2 = 0.8	770.82	1203.1	1.614
313.15 K, x2 = 0.9	776.63	1182	1.515
318.15 K, x2 = 0	756.05	1265	1.996
318.15 K, x2 = 0.1	755.74	1256	1.874
318.15 K, x2 = 0.2	756.07	1248.7	1.8
318.15 K, x2 = 0.3	756.67	1241.2	1.743
318.15 K, x2 = 0.4	757.58	1233	1.69
318.15 K, x2 = 0.5	758.84	1224	1.634
318.15 K, x2 = 0.6	760.62	1213.3	1.58
318.15 K, x2 = 0.7	763.14	1201.1	1.519
318.15 K, x2 = 0.8	766.85	1185.1	1.448
318.15 K, x2 = 0.9	772.59	1164.4	1.357
323.15 K, x2 = 0	752.61	1247.1	1.823
323.15 K, x2 = 0.1	752.19	1237.9	1.708
323.15 K, x2 = 0.2	752.45	1230.5	1.639
323.15 K, x2 = 0.3	753	1222.9	1.587
323.15 K, x2 = 0.4	753.84	1214.7	1.537
323.15 K, x2 = 0.5	755.05	1205.6	1.484
323.15 K, x2 = 0.6	756.76	1195.1	1.432
323.15 K, x2 = 0.7	759.22	1182.9	1.375
323.15 K, x2 = 0.8	762.85	1167.2	1.308
323.15 K, x2 = 0.9	768.51	1147	1.223
328.15 K, x2 = 0	749.18	1229.3	1.671
328.15 K, x2 = 0.1	748.64	1220	1.565
328.15 K, x2 = 0.2	748.83	1212.4	1.499
328.15 K, x2 = 0.3	749.32	1204.7	1.452
328.15 K, x2 = 0.4	750.09	1196.5	1.403
328.15 K, x2 = 0.5	751.23	1187.4	1.352
328.15 K, x2 = 0.6	752.86	1176.8	1.303
328.15 K, x2 = 0.7	755.25	1164.8	1.248
328.15 K, x2 = 0.8	758.8	1149.4	1.186
328.15 K, x2 = 0.9	764.37	1129.5	1.106
333.15 K, x2 = 0	745.74	1211.8	1.537
333.15 K, x2 = 0.1	745.09	1202.2	1.438
333.15 K, x2 = 0.2	745.2	1194.5	1.375
333.15 K, x2 = 0.3	745.61	1186.7	1.331
333.15 K, x2 = 0.4	746.31	1178.5	1.284
333.15 K, x2 = 0.5	747.38	1169.2	1.237
333.15 K, x2 = 0.6	748.93	1158.7	1.19
333.15 K, x2 = 0.7	751.24	1146.8	1.138
333.15 K, x2 = 0.8	754.7	1131.5	1.079
333.15 K, x2 = 0.9	760.17	1112.1	1.004
338.15 K, x2 = 0	742.31	1194.4	1.421
338.15 K, x2 = 0.1	741.53	1184.6	1.329
338.15 K, x2 = 0.2	741.55	1176.7	1.266
338.15 K, x2 = 0.3	741.89	1168.8	1.226
338.15 K, x2 = 0.4	742.52	1160.5	1.179
338.15 K, x2 = 0.5	743.5	1151.2	1.134
338.15 K, x2 = 0.6	744.97	1140.7	1.087
338.15 K, x2 = 0.7	747.19	1128.8	1.039
338.15 K, x2 = 0.8	750.55	1113.7	0.9835
338.15 K, x2 = 0.9	755.91	1094.6	0.9119
343.15 K, x2 = 0	738.88	1177.5	1.316
343.15 K, x2 = 0.1	737.98	1167.2	1.23
343.15 K, x2 = 0.2	737.89	1159.1	1.168
343.15 K, x2 = 0.3	738.15	1151.1	1.131
343.15 K, x2 = 0.4	738.69	1142.7	1.085
343.15 K, x2 = 0.5	739.59	1133.3	1.042
343.15 K, x2 = 0.6	740.96	1122.7	0.9894
343.15 K, x2 = 0.7	743.08	1110.9	0.9461
343.15 K, x2 = 0.8	746.33	1095.9	0.8985
343.15 K, x2 = 0.9	751.58	1077.1	0.8305
